US7648996B2 (Biotica Technology Limited, priority 2005, dated 2010)
Marks after values point to notes of the source that are not given here.

How the values were obtained:
FKBP12 = FKBP12 (Homo sapiens, UniProt P62942); experiment: FKBP-12 in vitro binding assay (GdnHCl denaturation curve shift)
Excerpt: FKBP12 reversibly unfolds in the chemical denaturant guandinium hydrochloride (GdnHCl) and the unfolding can be monitored by the change in the intrinsic fluorescence of the protein (Main et al, 1998). Ligands which specifically bind and stabilise the native state of FKBP12 shift the denaturation curve such that the protein unfolds at higher concentrations of chemical denaturant (Main et al, 1999). From the difference in stability, the ligand-binding constant can be determined using equation 1.
[formula] where ΔGapp is the apparent difference in free energy of unfolding between free and ligand-bound forms, ΔGD-N^H^2^O is the free energy of unfolding in water of free protein, [L] the concentration of ligand and Kd the dissociation constant for the protein-ligand complex (Meiering et al, 1992). The free energy of unfolding can be related to the midpoint of the unfolding transition using the following equation: ΔGD-N^H^2^O=mD-N[D]50% (2) where mD-N is a constant for a given protein and given denaturant and which is proportional to the change in degree of exposure of residues on unfolding (Tanford 1968 and Tanford 1970), and [D]50% is the concentration of denaturant corresponding to the midpoint of unfolding. […] Under conditions where [L]>Kd, then, ΔΔGD-N, can be related to the relative Kds of the two compounds through equation 4: […]

[1] = system: panel of 12 human tumour cell lines; experiment: Monolayer proliferation assay, mean across the cell lines tested; assay type: cell-based; details: for IC50: Homo sapiens
Description: (§1) In vitro evaluation of compounds for anticancer activity in a panel of 12 human tumour cell lines in a monolayer proliferation assay was carried out at the Oncotest Testing Facility, Institute for Experimental Oncology, Oncotest GmbH, Freiburg.
(§2) The Oncotest cell lines were established from human tumor xenografts as described by Roth et al. 1999. The origin of the donor xenografts was described by Fiebig et al. 1999. Other cell lines were either obtained from the NCI (H460, SF-268, OVCAR-3, DU145, MDA-MB-231, MDA-MB-468) or purchased from DSMZ, Braunschweig, Germany (LNCAP).
(§3) All cell lines, unless otherwise specified, are grown at 37° C. in a humidified atmosphere (95% air, 5% CO2) in a ‘ready-mix’ medium containing RPMI 1640 medium, 10% fetal calf serum, and 0.1 mg/mL gentamicin (PAA, Cölbe, Germany).
(§4) A modified propidium iodide assay was used to assess the effects of the test compound(s) on the growth of twelve human tumor cell lines (Dengler et al., (1995)).
(§5) Briefly, cells were harvested from exponential phase cultures by trypsinization, counted and plated in 96 well flat-bottomed microtitre plates at a cell density dependent on the cell line (5-10,000 viable cells/well). After 24 h recovery to allow the cells to resume exponential growth, 0.01 mL of culture medium (6 control wells per plate) or culture medium containing macbecin are added to the wells. Each concentration is plated in triplicate. […] Following 4 days of continuous exposure, cell culture medium with or without test compound is replaced by 0.2 mL of an aqueous propidium iodide (PI) solution (7 mg/L). To measure the proportion of living cells, cells are permeabilized by freezing the plates. After thawing the plates, fluorescence is measured using the Cytofluor 4000 microplate reader (excitation 530 nm, emission 620 nm), giving a direct relationship to the total number of viable cells.
(§6) Growth inhibition is expressed as treated/control×100 (% T/C). For active compounds, IC50 & IC70 values were estimated by plotting compound concentration versus cell viability.

394NL = experiment: Monolayer proliferation assay (modified propidium iodide); assay type: cell-based, human; details: mean of duplicate experiments
Description: as §1, §2, §3, §4, §5, §6

251L = experiment: as above; assay type: cell-based, human; details: mean of duplicate experiments
Description: as §1, §2, §3, §4, §5, §6

H460 = experiment: as above; assay type: cell-based, human; details: mean of duplicate experiments
Description: as §1, §2, §3, §4, §5, §6

SF268 = experiment: as above; assay type: cell-based, human; details: mean of duplicate experiments
Description: as §1, §2, §3, §4, §5, §6

LNCAP = experiment: as above; assay type: cell-based, human; details: mean of duplicate experiments
Description: as §1, §2, §3, §4, §5, §6

1138L = experiment: as above; assay type: cell-based, human; details: mean of duplicate experiments
Description: as §1, §2, §3, §4, §5, §6

DU145 = experiment: as above; assay type: cell-based, human; details: mean of duplicate experiments
Description: as §1, §2, §3, §4, §5, §6

MCF7 = experiment: as above; assay type: cell-based, human; details: mean of duplicate experiments
Description: as §1, §2, §3, §4, §5, §6

OVCAR3 = experiment: as above; assay type: cell-based, human; details: mean of duplicate experiments
Description: as §1, §2, §3, §4, §5, §6

A498 = experiment: as above; assay type: cell-based, human; details: mean of duplicate experiments
Description: as §1, §2, §3, §4, §5, §6

MDA468 = experiment: as above; assay type: cell-based, human; details: mean of duplicate experiments
Description: as §1, §2, §3, §4, §5, §6

MDA231 = experiment: as above; assay type: cell-based, human; details: mean of duplicate experiments
Description: as §1, §2, §3, §4, §5, §6

[2] = mean based on the 9 cell lines for which data was available
[3] = mean across the 12 cell lines tested

Chain of FKBP12 (P62942 whole entry): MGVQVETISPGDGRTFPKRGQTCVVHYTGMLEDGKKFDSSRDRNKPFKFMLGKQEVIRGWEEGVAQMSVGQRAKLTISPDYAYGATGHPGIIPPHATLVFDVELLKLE

Row | Structure (SMILES) | Kd (FKBP12) | Cell Growth (Test/Control (%) at drug concentration) (394NL; 1 μM) | Cell Growth (Test/Control (%) at drug concentration) (394NL; 10 μM) | Cell Growth (Test/Control (%) at drug concentration) (251L; 1 μM) | Cell Growth (Test/Control (%) at drug concentration) (251L; 10 μM) | Cell Growth (Test/Control (%) at drug concentration) (H460; H460, 1 μM) | Cell Growth (Test/Control (%) at drug concentration) (H460; H460, 10 μM) | Cell Growth (Test/Control (%) at drug concentration) (SF268; SF268, 1 μM) | Cell Growth (Test/Control (%) at drug concentration) (SF268; SF268, 10 μM) | Cell Growth (Test/Control (%) at drug concentration) (LNCAP; 1 μM) | Cell Growth (Test/Control (%) at drug concentration) (LNCAP; 10 μM) | Cell Growth (Test/Control (%) at drug concentration) (1138L; 1 μM) | Cell Growth (Test/Control (%) at drug concentration) (1138L; 10 μM) | Cell Growth (Test/Control (%) at drug concentration) (DU145; DU145, 1 μM) | Cell Growth (Test/Control (%) at drug concentration) (DU145; DU145, 10 μM) | Cell Growth (Test/Control (%) at drug concentration) (MCF7; MCF7, 1 μM) | Cell Growth (Test/Control (%) at drug concentration) (MCF7; MCF7, 10 μM) | Cell Growth (Test/Control (%) at drug concentration) (OVCAR3; OVCAR3, 1 μM) | Cell Growth (Test/Control (%) at drug concentration) (OVCAR3; OVCAR3, 10 μM) | IC50 [1, 3] | also measured
1 | COC1CC2CCC(C)C(O)(O2)C(=O)C(=O)N2CCCCC2C(=O)OC(C(C)CC2CCC(OCCO)CC2)CC(=O)C(C)C=C(C)C(O)C(OC)C(=O)C(C)CC(C)C=CC=CC=C1C (centres unmarked) [39-desmethoxy-40-O-(2-hydroxy)ethyl rapamycin] | 0.0037 µM | 55% | 6% | 90% | 31% | 76% | 25% | 63% | 7% | 49% | 18% | 59% | 4% | 56% | 7% | 77% | 10% | 85% | 9% |  | IC50 [1, 2]: 2.2 µM; Mean IC70 [1, 2]: 5.513* microM
2 | CO[C@H]1C[C@@H]2CC[C@@H](C)[C@@](O)(O2)C(=O)C(=O)N2CCCC[C@H]2C(=O)O[C@H]([C@H](C)C[C@@H]2CC[C@@H](O)[C@H](OC)C2)CC(=O)[C@H](C)/C=C(\C)[C@@H](O)[C@@H](OC)C(=O)[C@H](C)C[C@H](C)/C=C/C=C/C=C/1C [Rapamycin, reference compound] |  | 45% | 44% | 75.5% | 40% | 67% | 66% | 53.5% | 46% | 61% | 34% | 42% | 21.5% | 50.5% | 54% | 68.5% | 26.5% | 69% | 69.5% | 3.5 µM | Mean IC70 [1, 3]: 9.1 µM; Cell Growth (Test/Control (%) at drug concentration) (A498; A498, 1 μM): 58.5%; Cell Growth (Test/Control (%) at drug concentration) (A498; A498, 10 μM): 48.5%; Cell Growth (Test/Control (%) at drug concentration) (MDA468; MDA468, 1 μM): 56.5%; Cell Growth (Test/Control (%) at drug concentration) (MDA468; MDA468, 10 μM): 32%; Cell Growth (Test/Control (%) at drug concentration) (MDA231; MDA231, 1 μM): 67%; Cell Growth (Test/Control (%) at drug concentration) (MDA231; MDA231, 10 μM): 63.5%
3 | COC1CC2CCC(C)C(O)(O2)C(=O)C(=O)N2CCCCC2C(=O)OC(C(C)CC2CCC(OC(=O)C(C)(CO)CO)CC2)CC(=O)C(C)C=C(C)C(O)C(OC)C(=O)C(C)CC(C)C=CC=CC=C1C (centres unmarked) [39-desmethoxy-40-O-[2,2-bis(hydroxymethyl)propionyl]rapamycin] | 0.0011 µM | 46% | 13% | 85.5% | 13% | 66% | 12% | 62.5% | 12% | 48.5% | 20.5% | 50% | 7.5% | 62.5% | 13.5% | 67% | 9% | 73.5% | 39% | 2 µM | Mean IC70 [1, 3]: 4.5 µM; Cell Growth (Test/Control (%) at drug concentration) (A498; A498, 1 μM): 66%; Cell Growth (Test/Control (%) at drug concentration) (A498; A498, 10 μM): 19.5%; Cell Growth (Test/Control (%) at drug concentration) (MDA468; MDA468, 1 μM): 66%; Cell Growth (Test/Control (%) at drug concentration) (MDA468; MDA468, 10 μM): 9%; Cell Growth (Test/Control (%) at drug concentration) (MDA231; MDA231, 1 μM): 70.5%; Cell Growth (Test/Control (%) at drug concentration) (MDA231; MDA231, 10 μM): 13.5%
